According to PMC10975719, “Tobramycin Reduces Pulmonary Toxicity of Polymyxin B via Inhibiting the Megalin-Mediated Drug Uptake in the Human Lung Epithelial Cells” (Pharmaceutics, 2024):
Like-named read-outs stand apart in the source and are kept apart here. Bridge positions count the residues as written; N and C are the ends. Square brackets hold non-standard residues; d marks the D form. Peptide text beside a SMILES is read from it. * marks the point of attachment. X1 = CC[C@H](C)CCCCC(=O)*; Dab = NCC[C@H](N)C(=O)O

Assays:
[1] = test system: human lung epithelial Calu-3 cells; format: cell-based
Description: Assessment of cytotoxicity was performed using aqueous solutions of polymyxin B, tobramycin, and the combination of both in human lung epithelial Calu-3 cells. This cytotoxicity assessment aimed to determine safe drug concentrations for the transport and imaging experiments. Cells were seeded in 96-well flat bottom plate (Corning, NY, USA) at a density of 2 × 10^5 cells/mL. A wide concentration range was chosen, considering a molar ratio of 1:5 polymyxin B to tobramycin based on the literature. Lactate dehydrogenase (LDH) assay was used for the measurement of cytotoxicity. Vehicle-treated cells were considered as the negative control, while 10× lysis buffer treated cells were employed as the positive control. For the imaging study, Calu-3 cells were cultured in a 35 mm glass bottom culture dish at a density of 2 × 10^5 cells/mL and were treated with a vehicle, tobramycin 700 mg/L, polymyxin B 300 mg/L, and the combination. After treatment, cells were washed with PBS and stained with PI (100 ng/mL) and DAPI (1 mg/L) for 30 min in dark. Cells were washed again with PBS and mounted for imaging with Calu-3 cell culture media.

Calu-3 cell monolayer [2] = assay: Transport study in air liquid interface Calu-3 cell monolayer; conditions: LC-MS/MS; for transport rate, apparent permeability coefficient (Papp), in combination compared to drug alone / amount remaining in the apical chamber, combination compared to drug alone / transport from apical chamber to basal medium: Calu-3 ALI monolayer; for transport rate, apparent permeability coefficient (Papp), in combination compared to drug alone: apical to basal, polymyxin B 30 mg/L + tobramycin 70 mg/L vs each alone, p < 0.0001; for transport rate, apparent permeability coefficient (Papp), in combination compared to drug alone / transport from apical chamber to basal medium / accumulation in Calu-3 cell monolayer: HBSS; for amount remaining in the apical chamber, combination compared to drug alone: after 4 h of transport study; for transport from apical chamber to basal medium: 4 h; for accumulation in Calu-3 cell monolayer: at 4 h
Description: Human lung epithelial Calu-3 cells were grown in a 6.5 mm cell culture insert in a trans-well plate for 3 days using both apical and basal media. The apical media was withdrawn to let the cells grow in an air liquid interface (ALI). The system was maintained for 14 days, with the basal media changed every other day. The culture medium was DMEM/F-12 supplemented with 10% (v/v, FBS) and 1% (v/v) nonessential amino acid, and penicillin and streptomycin (100 units/mL of penicillin and 100 mg/L of streptomycin). After 14 days of differentiation at the ALI condition, the trans-epithelial electrical resistance (TEER) value was measured to investigate the integrity of the formed Calu-3 monolayer.
The transport study was conducted in the Calu-3 cell monolayer according to our previously published ALI culture protocol. TEER values were measured before and after the transport study to ensure the cell monolayer integrity was maintained. As the transport process was done in HBSS buffer, the drug solution was also prepared in HBSS buffer. The cell monolayer inserts were incubated with HBSS buffer for 30 min to equilibrate. The following drug solutions were used in the transport process: polymyxin B 30 mg/L, tobramycin 70 mg/L, and the combination of polymyxin B 30 mg/L and tobramycin 70 mg/L. An aliquot of 200 µL of drug solution was added to the apical chamber and 600 µL of HBSS buffer was added to the basal chamber. The samples were collected from the basal chamber every hour for a total of 4 h and the basal chamber was refilled with fresh HBSS buffer. Transported drug from the basal chamber, remaining drug from the apical chamber, and drug accumulated in the cell monolayer were extracted and analyzed using a reversed-phase LC/MS system. Drug extraction and LC/MS analysis was performed according to a previously published protocol.
For the transported samples, all buffer in the basal chamber was collected to a centrifuge tube. Colistin (1 mg/L) was added as the internal standard, and formic acid (0.1%, v/v) was added to each sample. For drug analysis in the cell, the insert was cut using a sharp scalpel. The cells in the membrane were lysed overnight with RIPA buffer and 200 µL of each sample was used to extract the drug using a protein precipitation method. Acetonitrile (400 µL) was added to the cell lysate and vortexed well to precipitate all the protein. Internal standard and formic acid were added to the samples as previously described, vortexed well, and centrifuged before transferring the supernatant into the injection vial.
The drugs were analyzed using an LC-MS/MS equipped with a C18 column (2.6 μm, 50 mm × 3 mm), a liquid chromatography system (Agilent 1200, Santa Clara, CA, USA), and a triple quadrupole mass spectrometer (Agilent 6460 QQQ, Santa Clara, CA, USA) with an electrospray ionization source. The mobile phase was 0.1% formic acid solution in water (90%) and 0.1% formic acid solution in acetonitrile (10%) with a flow rate of 0.6 mL/min. A gradient elution procedure was used, and each component was measured via multiple reaction monitoring (MRM) in the positive ionization mode (Table 1).

Calu-3 cells = assay: Cellular uptake of polymyxin B by confocal microscopy (anti-polymyxin B antibody, Alexa 647); format: cell-based, human; conditions: 4 h
Description: Polymyxin B distribution in the Calu-3 cell monolayer was investigated using confocal laser scanning microscopy (CLSM). At the end of the transport process, the Calu-3 cell monolayer was prepared for imaging. The cell monolayer was washed with phosphate-buffered saline after treatment and fixed with 4% paraformaldehyde for 15 min. The cell monolayer was then permeabilized with 0.1% triton X-100 for 10 min and blocked with 3% goat serum in 0.1% triton X-100 for 2 h. To stain intracellular polymyxin B, the cell monolayer was then incubated overnight with mouse anti-polymyxin B antibody at 4 °C in the dark. After overnight incubation, the cell monolayer was incubated with goat anti-mouse IgG conjugated with Alexa Flour™ 647 for 2 h at room temperature. The nuclei were stained with Hoechst 33342.
For the drug accumulation study, Calu-3 cells were cultured in a glass bottom 35 mm dish (Ashland, MA, USA) and were incubated with 30 mg/L polymyxin B in the absence and presence of 70 mg/L tobramycin for 4 h. […] For the drug accumulation study, the background subtracted integrated density of Alexa Flour 647 (for polymyxin B) was calculated and data were presented as mean polymyxin B intensity per cell. Cell numbers per imaging field were counted using the Hoechst 33342 intensity and ImageJ “cell counter” Macro (ImageJ version 2.9).

megalin = target: T1, megalin (Homo sapiens, UniProt P98164); assay: Megalin substrate FITC-BSA uptake by Calu-3 cells, confocal microscopy; format: cell-based; conditions: 4 h; for ratio of FITC-BSA to nucleus integrated density: 100 mg/L FITC-BSA, Calu-3 cells, FITC-BSA only 0.58 ± 0.04; for effect on cellular uptake of FITC-BSA: polymyxin B 30 and 60 mg/L, tobramycin 70 and 140 mg/L
T1 construct: endogenous in cells; host or cells: Calu-3 (human lung epithelial cells)
T1 sequence (P98164 26-4655): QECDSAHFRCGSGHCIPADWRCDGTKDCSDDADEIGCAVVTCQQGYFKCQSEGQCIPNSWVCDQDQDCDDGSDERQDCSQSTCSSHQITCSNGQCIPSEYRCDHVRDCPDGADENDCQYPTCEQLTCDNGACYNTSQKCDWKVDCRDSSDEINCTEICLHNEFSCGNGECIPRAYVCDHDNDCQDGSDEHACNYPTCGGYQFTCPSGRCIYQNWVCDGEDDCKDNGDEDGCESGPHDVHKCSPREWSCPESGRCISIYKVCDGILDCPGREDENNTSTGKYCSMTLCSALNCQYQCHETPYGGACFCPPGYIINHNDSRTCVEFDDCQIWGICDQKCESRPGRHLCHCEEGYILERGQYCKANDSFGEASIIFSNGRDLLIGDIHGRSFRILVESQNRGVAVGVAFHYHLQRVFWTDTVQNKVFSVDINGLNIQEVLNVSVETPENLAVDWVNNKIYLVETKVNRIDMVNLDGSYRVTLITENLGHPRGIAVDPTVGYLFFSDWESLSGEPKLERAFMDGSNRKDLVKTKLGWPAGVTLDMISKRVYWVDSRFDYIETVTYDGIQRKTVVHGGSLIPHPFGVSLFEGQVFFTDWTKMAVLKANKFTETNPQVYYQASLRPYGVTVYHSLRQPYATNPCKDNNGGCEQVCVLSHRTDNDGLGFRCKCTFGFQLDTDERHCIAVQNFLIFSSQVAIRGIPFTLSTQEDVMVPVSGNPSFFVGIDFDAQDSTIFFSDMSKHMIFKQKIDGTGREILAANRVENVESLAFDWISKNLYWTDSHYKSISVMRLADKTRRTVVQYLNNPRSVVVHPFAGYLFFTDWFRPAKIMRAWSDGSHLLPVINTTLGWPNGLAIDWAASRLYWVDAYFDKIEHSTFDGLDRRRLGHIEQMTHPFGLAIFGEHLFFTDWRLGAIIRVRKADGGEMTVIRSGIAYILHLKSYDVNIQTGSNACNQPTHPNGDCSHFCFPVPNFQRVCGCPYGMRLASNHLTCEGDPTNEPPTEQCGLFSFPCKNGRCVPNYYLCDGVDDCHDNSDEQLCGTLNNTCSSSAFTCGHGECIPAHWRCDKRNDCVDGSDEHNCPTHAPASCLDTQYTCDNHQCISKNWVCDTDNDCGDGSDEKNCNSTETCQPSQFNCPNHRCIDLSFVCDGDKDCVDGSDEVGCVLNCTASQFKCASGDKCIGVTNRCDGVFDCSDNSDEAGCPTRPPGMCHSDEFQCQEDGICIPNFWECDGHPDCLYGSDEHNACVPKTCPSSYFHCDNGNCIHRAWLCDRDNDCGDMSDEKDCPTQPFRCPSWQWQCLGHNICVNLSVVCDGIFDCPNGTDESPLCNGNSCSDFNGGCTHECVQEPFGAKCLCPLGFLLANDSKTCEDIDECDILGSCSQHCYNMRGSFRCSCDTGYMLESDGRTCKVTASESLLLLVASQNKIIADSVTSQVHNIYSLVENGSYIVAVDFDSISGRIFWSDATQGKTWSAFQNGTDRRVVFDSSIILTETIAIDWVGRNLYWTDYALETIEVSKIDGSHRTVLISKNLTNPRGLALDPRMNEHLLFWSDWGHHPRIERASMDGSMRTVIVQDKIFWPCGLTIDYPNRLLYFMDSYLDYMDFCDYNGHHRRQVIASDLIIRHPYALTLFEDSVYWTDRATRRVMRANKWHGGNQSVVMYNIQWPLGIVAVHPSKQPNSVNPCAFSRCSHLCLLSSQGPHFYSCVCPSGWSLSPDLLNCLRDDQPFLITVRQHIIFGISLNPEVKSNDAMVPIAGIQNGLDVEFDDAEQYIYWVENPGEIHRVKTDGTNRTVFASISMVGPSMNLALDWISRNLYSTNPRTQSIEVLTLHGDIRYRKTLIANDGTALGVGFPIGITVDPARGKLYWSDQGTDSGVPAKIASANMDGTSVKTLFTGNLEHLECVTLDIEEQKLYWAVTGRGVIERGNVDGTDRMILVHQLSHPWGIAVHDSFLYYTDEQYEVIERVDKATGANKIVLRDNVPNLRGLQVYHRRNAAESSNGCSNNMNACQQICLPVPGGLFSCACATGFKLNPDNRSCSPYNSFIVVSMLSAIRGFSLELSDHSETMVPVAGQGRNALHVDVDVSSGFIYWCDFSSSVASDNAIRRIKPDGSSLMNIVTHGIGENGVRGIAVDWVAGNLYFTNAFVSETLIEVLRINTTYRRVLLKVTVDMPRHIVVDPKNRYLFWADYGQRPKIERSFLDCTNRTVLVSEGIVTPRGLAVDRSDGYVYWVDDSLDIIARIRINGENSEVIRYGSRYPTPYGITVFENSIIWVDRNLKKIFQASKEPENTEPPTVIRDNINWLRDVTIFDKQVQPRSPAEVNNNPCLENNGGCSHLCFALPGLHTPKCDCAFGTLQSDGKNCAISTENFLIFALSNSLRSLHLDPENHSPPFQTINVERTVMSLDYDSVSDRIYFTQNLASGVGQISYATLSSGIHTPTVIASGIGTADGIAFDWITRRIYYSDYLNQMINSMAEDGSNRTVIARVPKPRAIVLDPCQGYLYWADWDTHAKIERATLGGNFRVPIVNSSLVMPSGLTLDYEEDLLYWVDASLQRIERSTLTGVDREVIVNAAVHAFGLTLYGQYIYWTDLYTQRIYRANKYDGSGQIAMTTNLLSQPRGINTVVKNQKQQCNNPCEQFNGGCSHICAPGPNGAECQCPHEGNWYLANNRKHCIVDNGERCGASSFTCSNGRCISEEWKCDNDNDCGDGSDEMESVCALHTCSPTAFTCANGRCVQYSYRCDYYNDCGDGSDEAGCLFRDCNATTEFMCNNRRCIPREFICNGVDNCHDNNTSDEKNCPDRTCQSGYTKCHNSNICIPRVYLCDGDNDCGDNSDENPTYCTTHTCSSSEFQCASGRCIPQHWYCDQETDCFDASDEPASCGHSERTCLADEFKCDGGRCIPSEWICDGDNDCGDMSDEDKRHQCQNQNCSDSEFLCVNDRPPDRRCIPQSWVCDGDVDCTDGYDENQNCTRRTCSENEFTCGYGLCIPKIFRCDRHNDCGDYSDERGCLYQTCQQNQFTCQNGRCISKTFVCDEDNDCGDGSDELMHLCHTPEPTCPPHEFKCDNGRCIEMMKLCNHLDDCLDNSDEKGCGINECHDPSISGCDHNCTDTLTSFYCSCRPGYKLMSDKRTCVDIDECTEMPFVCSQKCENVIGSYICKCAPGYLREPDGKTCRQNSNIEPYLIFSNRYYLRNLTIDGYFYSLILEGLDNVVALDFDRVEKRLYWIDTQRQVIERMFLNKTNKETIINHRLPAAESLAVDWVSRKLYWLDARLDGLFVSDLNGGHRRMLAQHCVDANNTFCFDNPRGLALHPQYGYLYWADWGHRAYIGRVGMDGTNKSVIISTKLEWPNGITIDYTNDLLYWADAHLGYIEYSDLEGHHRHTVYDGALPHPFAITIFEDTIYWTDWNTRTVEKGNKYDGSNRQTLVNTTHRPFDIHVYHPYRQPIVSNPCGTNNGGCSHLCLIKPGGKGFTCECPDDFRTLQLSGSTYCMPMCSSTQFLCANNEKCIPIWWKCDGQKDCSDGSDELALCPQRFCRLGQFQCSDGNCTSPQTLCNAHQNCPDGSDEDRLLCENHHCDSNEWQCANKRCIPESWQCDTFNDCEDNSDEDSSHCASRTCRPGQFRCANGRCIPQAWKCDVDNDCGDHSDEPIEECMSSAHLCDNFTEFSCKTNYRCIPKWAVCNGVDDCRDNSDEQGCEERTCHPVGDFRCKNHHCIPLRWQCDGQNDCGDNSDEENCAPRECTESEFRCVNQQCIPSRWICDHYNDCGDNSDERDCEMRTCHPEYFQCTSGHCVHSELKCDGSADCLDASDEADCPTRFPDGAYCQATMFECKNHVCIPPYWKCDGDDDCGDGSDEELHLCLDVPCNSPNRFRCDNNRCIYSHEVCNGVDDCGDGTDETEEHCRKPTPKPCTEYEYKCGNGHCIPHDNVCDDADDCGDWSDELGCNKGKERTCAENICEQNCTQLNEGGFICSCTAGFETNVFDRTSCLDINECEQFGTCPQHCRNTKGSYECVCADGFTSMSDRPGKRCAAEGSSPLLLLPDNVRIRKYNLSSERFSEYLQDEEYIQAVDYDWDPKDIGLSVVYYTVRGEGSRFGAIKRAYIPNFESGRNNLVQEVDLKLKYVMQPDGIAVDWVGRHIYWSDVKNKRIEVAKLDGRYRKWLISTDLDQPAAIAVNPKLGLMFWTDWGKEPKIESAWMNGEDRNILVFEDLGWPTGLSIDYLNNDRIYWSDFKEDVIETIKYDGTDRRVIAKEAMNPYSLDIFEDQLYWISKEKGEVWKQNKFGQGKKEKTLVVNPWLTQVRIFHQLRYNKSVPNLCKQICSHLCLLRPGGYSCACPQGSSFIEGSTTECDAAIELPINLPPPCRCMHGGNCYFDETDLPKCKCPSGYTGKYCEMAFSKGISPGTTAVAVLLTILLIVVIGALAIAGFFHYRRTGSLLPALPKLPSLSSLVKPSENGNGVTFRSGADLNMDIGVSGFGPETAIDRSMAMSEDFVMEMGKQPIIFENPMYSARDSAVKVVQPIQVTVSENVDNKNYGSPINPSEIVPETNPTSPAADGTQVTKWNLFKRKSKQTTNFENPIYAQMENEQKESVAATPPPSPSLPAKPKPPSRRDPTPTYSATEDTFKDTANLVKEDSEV
Description: As albumin is an endogenous substrate of megalin [30], cellular distribution of fluorescein-labeled BSA (FITC-BSA) was evaluated in the presence of polymyxin B and tobramycin to investigate the functional activity of megalin in Calu-3 cells. Calu-3 cells were grown in an eight-well chamber slide at a density of 2 × 10^5 cell/mL in 10% FBS supplemented DMEM/F-12 cell culture media. After overnight incubation at 37 °C and 5% CO2, cells were washed to remove old media and were incubated for 4 h with 100 μg/mL of FITC-BSA in fresh cell culture media and in the presence and absence of polymyxin B (30 and 60 mg/L) and tobramycin (70 and 140 mg/L). After 4 h, cells were washed and stained with Hoechst for nucleus staining and cell mask deep red for cell membrane staining. Cells were finally washed and covered with Prolong gold antifade mounting reagent and mounted on a 60× oil immersion objective for imaging. Images were taken with a Nikon Eclipse T1 confocal microscope. Images were processed with Nikon (NIS-Elements) and Image J (version 1.54) software.

Calu-3 cell monolayer [3] = assay: Transport in Calu-3 cell monolayer in presence of megalin inhibitor sodium maleate; format: in vitro ADME, human; conditions: for cellular accumulation / remaining in the apical chamber / intracellular accumulation normalized to protein: 2 h; for intracellular accumulation normalized to protein: Calu-3 monolayer lysate (RIPA)
Description: The transport behavior of polymyxin B and tobramycin in the Calu-3 cell monolayer were also evaluated in the presence of 8 mg/mL of sodium maleate, an agent known to inhibit megalin receptors via shedding of the megalin protein [23]. Calu-3 cell monolayer in trans-well inserts was formed following our previously published ALI culture protocol. Cell monolayers were pre-incubated with 8 mg/mL of sodium maleate for 4 h and were subsequently incubated with polymyxin B and tobramycin for 2 h. Samples were collected from the apical and basal chambers of the ALI culture system, analyzed using an LC-MS/MS system, and the drug content was calculated. The cell monolayer was then lysed with lysis buffer (RIPA buffer, Catalogue 89900, Thermofisher Scientific, Waltham, MA, USA) and cellular drug content was measured. Cell lysate (25 µL) from each sample was used for protein measurement. The amount of drug accumulated in the cell was normalized according to the amount of protein present in the samples. Polymyxin B and tobramycin concentrations in the samples, in the presence and absence of the megalin inhibitor sodium maleate, were plotted and statistical significance was calculated using Graph Pad Prism (version 9).

renal cortex = conditions: 400 mg/kg of sodium maleate administration, within 3 h after injection; cited from earlier work
[4] = combination (polymyxin B 30 mg/L + tobramycin 70 mg/L), p < 0.0001 vs alone
[5] = drug alone (polymyxin B 30 mg/L or tobramycin 70 mg/L), cell lysate RIPA
[6] = drug alone, without sodium maleate, Calu-3 ALI monolayer, LC-MS/MS
[7] = with sodium maleate 8 mg/mL (4 h pre-incubation), Calu-3 ALI monolayer, LC-MS/MS

With `CC[C@H](C)CCCCC(=O)N[C@@H](CCN)C(=O)N[C@H](C(=O)N[C@@H](CCN)C(=O)N[C@H]1CCNC(=O)[C@H]([C@@H](C)O)NC(=O)[C@H](CCN)NC(=O)[C@H](CCN)NC(=O)[C@H](CC(C)C)NC(=O)[C@@H](Cc2ccccc2)NC(=O)[C@H](CCN)NC1=O)[C@@H](C)O` [polymyxin B, Polymyxin B] (X1-[Dab]T[Dab][Dab][Dab][dF]L[Dab][Dab]T; lactam 4-C) the “safety of concentrations chosen for the transport study” value ([1]; 30 mg/L polymyxin B alone, 70 mg/L tobramycin alone, and their combination, based on cell viability data) was “safe”, the “cell death compared to the control” value ([1]; at 300 mg/L, LDH assay) was “significant cell death” and the PI intensity ([1]; polymyxin B 300 mg/L treated Calu-3 cells, mean ± SD (n = 3), p < 0.001 vs control) was 4334.0 ± 1131.6. For the same compound, the “transport rate, apparent permeability coefficient (Papp), in combination compared to drug alone” value (Calu-3 cell monolayer [2]) was “decreased significantly”, the “amount remaining in the apical chamber, combination compared to drug alone” value (Calu-3 cell monolayer [2]) was “Significantly higher amounts” and the “transport from apical chamber to basal medium” value (Calu-3 cell monolayer [2]; [4]) was 3.9 ± 0.3%. The “accumulation in Calu-3 cell monolayer” value (Calu-3 cell monolayer [2]; [4]) was 6.4 ± 0.1%, the “accumulation in Calu-3 cell monolayer” value (Calu-3 cell monolayer [2]; [5]) was 21.4 ± 2.0% and the “transport from apical chamber to basal medium” value (Calu-3 cell monolayer [2]; drug alone (polymyxin B 30 mg/L), 30 min equilibration) was 7.1 ± 0.4%. For the same compound, the “polymyxin B intensity per cell” value (Calu-3 cells; combination polymyxin B 30 mg/L + tobramycin 70 mg/L, mean ± SD, p < 0.001 vs polymyxin B alone) was 932.3 ± 136.0, the “polymyxin B intensity per cell” value (Calu-3 cells; polymyxin B 30 mg/L alone, Alexa 647, mean ± SD, saline control 113.0 ± 13.6) was 2259.3 ± 309.4 and the “ratio of FITC-BSA to nucleus integrated density” value (“ratio of FITC-BSA” below) (megalin; 30 mg/L polymyxin B) was 0.36 ± 0.03. The “ratio of FITC-BSA” value (megalin; 60 mg/L polymyxin B) was 0.29 ± 0.02, the “effect on cellular uptake of FITC-BSA” value (megalin) was “prevented the cellular uptake of FITC-BSA in a concentration-dependent manner” and the cellular accumulation (Calu-3 cell monolayer [3]; [6]) was 26.5 ± 2.1%. For the same compound, the “remaining in the apical chamber” value (Calu-3 cell monolayer [3]; [6]) was 59.9 ± 1.2%, the “transported from the apical chamber to the basal chamber” value (from here on “transported from the apical chamber”) (Calu-3 cell monolayer [3]; drug alone, without sodium maleate, Calu-3 ALI monolayer, 2 h incubation, LC-MS/MS) was 13.5 ± 1.6% and the “transported from the apical chamber” value (Calu-3 cell monolayer [3]; in the presence of sodium maleate 8 mg/mL (4 h pre-incubation), Calu-3 ALI monolayer, 2 h incubation, LC-MS/MS) was 8.2 ± 0.9%. For the same compound, the cellular accumulation (Calu-3 cell monolayer [3]; [7]) was 8.1 ± 0.4%, the “remaining in the apical chamber” value (Calu-3 cell monolayer [3]; [7]) was 83.7 ± 1.3% and the “intracellular accumulation normalized to protein” value (Calu-3 cell monolayer [3]; with sodium maleate 8 mg/mL (4 h pre-incubation), LC-MS/MS) was 1.9 ± 0.04 ng/µg of protein. For the same compound, the “intracellular accumulation normalized to protein” value (Calu-3 cell monolayer [3]; without sodium maleate, LC-MS/MS) was 6.0 ± 0.8 ng/µg of protein.

For `O=C([O-])/C=C\C(=O)[O-].[Na+].[Na+]` [sodium maleate], the “decrease of renal cortex accumulation of amikacin” value (renal cortex) is listed as 50%.

In the case of `NC[C@H]1O[C@H](O[C@H]2[C@H](O)[C@@H](O[C@H]3O[C@H](CO)[C@@H](O)[C@H](N)[C@H]3O)[C@H](N)C[C@@H]2N)[C@H](N)C[C@@H]1O` [tobramycin], the “reduction in viability of Calu-3 cells compared to the control” value [1] was “did not result in any reduction in the viability”, the “transport rate, apparent permeability coefficient (Papp), in combination compared to drug alone” value (Calu-3 cell monolayer [2]) was “decreased significantly” and the “amount remaining in the apical chamber, combination compared to drug alone” value (Calu-3 cell monolayer [2]) was “Significantly higher amounts”. For the same compound, the “accumulation in Calu-3 cell monolayer” value (Calu-3 cell monolayer [2]; [4]) was 3.8 ± 0.8%, the “accumulation in Calu-3 cell monolayer” value (Calu-3 cell monolayer [2]; [5]) was 13.2 ± 4.3% and the “ratio of FITC-BSA” value (megalin; 70 mg/L tobramycin) was 0.41 ± 0.02. The “ratio of FITC-BSA” value (megalin; 140 mg/L tobramycin) was 0.30 ± 0.02, the “effect on cellular uptake of FITC-BSA” value (megalin) was “prevented the cellular uptake of FITC-BSA in a concentration-dependent manner” and the “transported from the apical chamber” value (Calu-3 cell monolayer [3]) was 11.9 ± 1.3%.
